The values that follow are results of earlier work, collected in US20110250260A1, “INHIBITION OF BRAIN ENZYMES INOLVED IN CEREBRAL AMYLOID ANGIOPATHY AND MACULAR DEGENERATION” (Loma Linda University Medical Center, priority 2006, published 2011).

Series [1] deals with heart failure in a murine model.
Another series has as its system Heme oxidase. Conditions: experimental brain hematomas.
For series [2], the system named is liver function during hepatitis C virus infection. As to conditions: human trials.
The subject of series [3] is cell death after ischemia in multiple tissues. Conditions: animal models.

Where a SMILES comes first, the peptide text is derived from it. The star is where a group is joined. Cbz = O=C(OCc1ccccc1)*; CH2F = FC*

In the case of `Cc1c(C(=O)N[C@H](C(=O)NC(CC(=O)O)C(=O)CF)C(C)C)n(C)c2ccccc12` (stereo partly shown) [IDN-1965], the mortality entry in series [1] (compared with vehicle-treated mice) is “eliminate the 30% mortality”. For the same compound, in series [1] (continuous infusion), the “reduction of caspase 3-like activity” value is listed as 90% and the “reduction of terminal dUTP nick end-labeling-positive myocytes” value is on record as 90%.
Regarding tin-mesoporphyrin, the “effects to the brain of heme oxidase inhibition” value in the series with Heme oxidase is reported as “beneficial effects to the brain”.
As for `C[C@H](NC(=O)C(=O)Nc1ccccc1C(C)(C)C)C(=O)N[C@@H](CC(=O)O)C(=O)COc1c(F)c(F)cc(F)c1F` [IDN-6556], in series [2], the preserving liver function entry is listed as “showing promise” and the side-effects result is recorded as “without exhibiting serious side-effects”.
In the case of `COC(=O)C[C@H](NC(=O)[C@H](C)NC(=O)[C@@H](NC(=O)OCc1ccccc1)C(C)C)C(=O)CF` [zVAD-FMK] (Cbz-Val-Ala-Asp(OMe)-CH2F), in series [3], the “reducing cell death after ischemia” value is “highly effective”.
